Laboratory results as given in article PMC6099706, “Anti-Mycobacterium tuberculosis Activity of Esters of Quinoxaline 1,4-Di-N-Oxide” (Molecules : A Journal of Synthetic Chemistry and Natural …, 2018).
Converted amounts (≈) assume the structure as drawn.

Key:
[1] = tested on: Mycobacterium tuberculosis strain H37Rv; test: microplate Alamar blue assay (MABA); assay type: cell-based; details: for MIC: Mycobacterium tuberculosis, H37RV; for MIC / MABA MIC: M. tuberculosis H37Rv, lowest concentration effecting 90% inhibition; for MABA percentage in parentheses after the MIC bound: meaning not defined in the paper, printed beside the highest concentration
[2] = target: M. tuberculosis gyrase (GyrA and Gyr B subunits) (Mycobacterium tuberculosis, UniProt P9WG45+P9WG47); test: M. tuberculosis gyrase supercoiling assay; assay type: biochemical; details: at 50 μM
M. tuberculosis gyrase (GyrA and Gyr B subunits), sequence (P9WG45 whole entry): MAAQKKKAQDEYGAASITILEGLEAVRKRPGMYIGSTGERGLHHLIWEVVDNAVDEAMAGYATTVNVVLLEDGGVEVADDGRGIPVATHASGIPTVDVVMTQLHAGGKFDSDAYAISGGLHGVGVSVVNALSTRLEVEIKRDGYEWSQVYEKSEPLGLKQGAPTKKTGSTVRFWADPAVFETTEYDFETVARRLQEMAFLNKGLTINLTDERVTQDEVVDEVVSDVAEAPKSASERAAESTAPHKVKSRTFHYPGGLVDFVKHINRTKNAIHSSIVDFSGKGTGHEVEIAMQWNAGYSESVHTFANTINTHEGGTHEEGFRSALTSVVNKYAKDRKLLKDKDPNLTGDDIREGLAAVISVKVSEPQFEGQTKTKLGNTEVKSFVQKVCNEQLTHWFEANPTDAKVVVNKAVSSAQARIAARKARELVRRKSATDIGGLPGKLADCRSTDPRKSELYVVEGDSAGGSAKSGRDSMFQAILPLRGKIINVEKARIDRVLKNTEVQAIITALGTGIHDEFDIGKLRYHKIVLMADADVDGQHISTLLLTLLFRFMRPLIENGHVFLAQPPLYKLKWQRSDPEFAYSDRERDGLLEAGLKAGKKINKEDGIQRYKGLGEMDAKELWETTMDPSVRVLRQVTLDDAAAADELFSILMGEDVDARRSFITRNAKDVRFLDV
M. tuberculosis gyrase (GyrA and Gyr B subunits), sequence (P9WG47 whole entry): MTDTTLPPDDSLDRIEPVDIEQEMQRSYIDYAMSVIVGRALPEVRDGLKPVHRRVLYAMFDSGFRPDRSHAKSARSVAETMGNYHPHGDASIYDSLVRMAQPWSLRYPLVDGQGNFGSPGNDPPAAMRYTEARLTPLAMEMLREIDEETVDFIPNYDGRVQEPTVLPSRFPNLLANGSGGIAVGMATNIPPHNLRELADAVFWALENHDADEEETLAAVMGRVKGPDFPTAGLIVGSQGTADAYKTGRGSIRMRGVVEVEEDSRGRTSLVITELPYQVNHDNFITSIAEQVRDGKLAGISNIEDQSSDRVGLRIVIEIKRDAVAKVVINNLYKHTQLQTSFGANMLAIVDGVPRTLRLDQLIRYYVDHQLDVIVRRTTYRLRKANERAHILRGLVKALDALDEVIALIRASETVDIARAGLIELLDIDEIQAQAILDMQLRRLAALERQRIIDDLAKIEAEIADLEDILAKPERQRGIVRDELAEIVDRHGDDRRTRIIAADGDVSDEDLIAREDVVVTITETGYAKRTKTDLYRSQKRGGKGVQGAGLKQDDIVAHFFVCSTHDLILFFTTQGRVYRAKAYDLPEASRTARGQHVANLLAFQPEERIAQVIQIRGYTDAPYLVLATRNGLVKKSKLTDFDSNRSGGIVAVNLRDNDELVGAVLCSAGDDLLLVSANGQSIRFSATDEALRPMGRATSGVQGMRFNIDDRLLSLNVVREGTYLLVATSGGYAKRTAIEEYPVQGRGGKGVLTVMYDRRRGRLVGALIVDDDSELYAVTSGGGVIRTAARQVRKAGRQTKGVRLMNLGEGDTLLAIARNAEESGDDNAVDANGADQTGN
Method: The activity of the enzyme was determined prior to the testing of the quinoxaline 1,4-di-N-oxide derivatives and 1 U was defined as the amount of enzyme required to just fully supercoil the substrate under test conditions. Compounds were tested at 50 μM. Final DMSO concentration in the assays was 1% (v/v).
1 U of M. tuberculosis gyrase (GyrA and Gyr B subunits) (final concentration in assay 50 nM) was incubated with 0.5 μg of relaxed pBR322 DNA in a 30 μL reaction at 37 °C for 30 min under the following conditions: 50 mM HEPES. KOH (pH 7.9), 6 mM magnesium acetate, 4 mM DTT, 1 mM ATP, 100 mM potassium glutamate, 2 mM spermidine and 0.05 mg/mL albumin.
Each reaction was stopped by the addition of 30 μL chloroform/iso-amyl alcohol (26:1) and 20 μL Stop Dye (40% sucrose, 100 mM Tris.HCl (pH 7.5), 10 mM EDTA, 0.5 μg/mL bromophenol blue), before being loaded on a 1.0% TAE (Tris.acetate […], EDTA […]) gel run at 80 V for 2 h.
Bands were visualized by ethidium staining for 10 min, destained for 10 min in water, analyzed by gel documentation equipment (Syngene, Cambridge, UK), and quantified using Syngene software (Genetools version 4.00 (1997–1998), Syngene, A division of Synoptics Corp, Cambridge, UK).
Raw gel data (fluorescent band volumes) collected from Syngene’s GeneTools gel analysis software were converted to a % of the 100% control (the supercoiled enzyme plus DMSO control DNA band). These were analyzed using SigmaPlot Version 13.0 (Systat Software Inc., London, UK; 2016).

[3] = tested on: nonreplicating persistent (NRP) M. tuberculosis strain; test: microbe, parasite or virus in culture; assay type: cell-based, Mycobacterium tuberculosis; details: for MIC: Mycobacterium tuberculosis, read-out: LORA MIC; for LORA percentage in parentheses after the MIC bound: meaning not defined in the paper, printed beside the highest concentration
[4] = tested on: M. tb H37Rv; test: MIC on M. tb H37Rv (Table 4 panel); assay type: cell-based; details: Mycobacterium tuberculosis
[5] = nonreplicating persistent strain

| SMILES | MIC [1] [µg/mL] | MIC [3, 5] [µg/mL] | further results |
| --- | --- | --- | --- |
| COC(=O)c1ccc2c(c1)[n+]([O-])c(C(=O)c1ccccc1)c(C)[n+]2[O-] [Compound T-003] | 3.47 (≈ 10.3 µM) | 1.49 (≈ 4.4 µM) | inhibitory effect on M. tuberculosis gyrase supercoiling [2]: none of the compounds showed an inhibitory effect |
| CCOC(=O)c1ccc2c(c1)[n+]([O-])c(C(=O)c1ccccc1)c(C)[n+]2[O-] [Compound T-004] | 2.32 (≈ 6.58 µM) | 0.61 (≈ 1.73 µM) |  |
| COC(=O)c1ccc2c(c1)[n+]([O-])c(C(=O)Nc1ccccc1)c(C)[n+]2[O-] [Compound T-012] | 1.07 (≈ 3.03 µM) | 0.86 (≈ 2.43 µM) | inhibitory effect on M. tuberculosis gyrase supercoiling [2]: none of the compounds showed an inhibitory effect |
| CCOC(=O)c1c(C)[n+]([O-])c2ccc(C(=O)OC)cc2[n+]1[O-] [Compound T-013] | 0.47 (≈ 1.53 µM) | 0.54 (≈ 1.76 µM) | inhibitory effect on M. tuberculosis gyrase supercoiling [2]: none of the compounds showed an inhibitory effect |
| COC(=O)c1ccc2no[n+]([O-])c2c1 [Compound T-014] | 7.6 (≈ 39.1 µM) | 13 (≈ 66.9 µM) |  |
| CCOC(=O)c1ccc2c(c1)[n+]([O-])c(C(=O)OCC)c(C)[n+]2[O-] [Compound T-015] | 0.5 (≈ 1.56 µM) | 0.49 (≈ 1.53 µM) |  |
| CCOC(=O)c1ccc2c(c1)[n+]([O-])c(C(=O)CC)c(C(F)(F)F)[n+]2[O-] [Compound T-026] | > 22 | 2.5 (≈ 6.98 µM) | MABA MIC [1]: 22.5 µg/mL |
| COC(=O)c1ccc2c(c1)[n+]([O-])c(C(C)=O)c(C)[n+]2[O-] [Compound T-034] | 1.1 (≈ 3.98 µM) | 0.7 (≈ 2.53 µM) |  |
| COC(=O)c1cc2c(cc1OC)no[n+]2[O-] [Compound T-036] | > 100 |  | MABA MIC [1]: >128 µg/mL |
| CCOC(=O)Cc1c(C(=O)OCC)[n+]([O-])c2cc(C(=O)OC)ccc2[n+]1[O-] [Compound T-037] | 1.2 (≈ 3.17 µM) | 1.9 (≈ 5.02 µM) |  |
| CCC(=O)c1c(C(F)(F)F)[n+]([O-])c2ccc(C(=O)OC)cc2[n+]1[O-] [Compound T-038] | < 0.4 |  | inhibitory effect on M. tuberculosis gyrase supercoiling [2]: none of the compounds showed an inhibitory effect |
| COC(=O)c1ccc2c(c1)[n+]([O-])c(C(=O)C(C)C)c(C(F)(F)F)[n+]2[O-] [Compound T-039] | 1.54 (≈ 4.3 µM) | 0.83 (≈ 2.32 µM) |  |
| CCOC(=O)c1c(-c2ccccc2)[n+]([O-])c2ccc(C(=O)OC)cc2[n+]1[O-] [Compound T-042] | 1 (≈ 2.71 µM) | 0.5 (≈ 1.36 µM) |  |
| CCOC(=O)c1ccc2c(c1)[n+]([O-])c(C(=O)OCC)c(-c1ccccc1)[n+]2[O-] [Compound T-043] | 0.54 (≈ 1.41 µM) | 0.47 (≈ 1.23 µM) |  |
| CCOC(=O)c1ccc2c(c1)[n+]([O-])c(C(N)=O)c(C)[n+]2[O-] [Compound T-045] | > 22 | 100 (≈ 344 µM) | MABA MIC [1]: 29.83 µg/mL |
| [O-][n+]1onc2ccccc21 [Compound T-046] |  |  | MABA MIC [1]: 58.5 µg/mL; LORA MIC [3, 5]: 46.97 µg/mL |
| CC(C)OC(=O)c1ccc2no[n+]([O-])c2c1 [Compound T-063] | 1.4 (≈ 6.3 µM) | 3.04 (≈ 13.7 µM) |  |
| COC(=O)c1c(C)[n+]([O-])c2ccc(C(=O)OC(C)C)cc2[n+]1[O-] [Compound T-064] | 0.58 (≈ 1.81 µM) | 0.56 (≈ 1.75 µM) | inhibitory effect on M. tuberculosis gyrase supercoiling [2]: none of the compounds showed an inhibitory effect |
| CCOC(=O)c1c(C)[n+]([O-])c2ccc(C(=O)OC(C)C)cc2[n+]1[O-] [Compound T-065] | 0.7 (≈ 2.09 µM) | 0.5 (≈ 1.5 µM) |  |
| Cc1c(C(=O)OC(C)(C)C)[n+]([O-])c2cc(C(=O)OC(C)C)ccc2[n+]1[O-] [Compound T-066] | 68.6 (≈ 189 µM) | > 100 | LORA percentage in parentheses after the MIC bound [3]: 77% |
| CCOC(=O)Cc1c(C(=O)OCC)[n+]([O-])c2cc(C(=O)OC(C)C)ccc2[n+]1[O-] [Compound T-067] | 3.41 (≈ 8.39 µM) | 2.47 (≈ 6.08 µM) |  |
| CC(=O)c1c(C(F)(F)F)[n+]([O-])c2ccc(C(=O)OC(C)C)cc2[n+]1[O-] [Compound T-070] | ≤ 0.15 | 0.24 (≈ 0.67 µM) |  |

| SMILES | MIC [1] [µg/mL] | MIC [3, 5] [µg/mL] | further results |
| --- | --- | --- | --- |
| CC(C)OC(=O)c1ccc2c(c1)[n+]([O-])c(C(=O)c1ccccc1)c(C(F)(F)F)[n+]2[O-] [Compound T-071] | 1.19 (≈ 2.83 µM) | 0.64 (≈ 1.52 µM) |  |
| CC(C)OC(=O)c1ccc2c(c1)[n+]([O-])c(C(=O)c1ccco1)c(C(F)(F)F)[n+]2[O-] [Compound T-073] | 0.7 (≈ 1.71 µM) | 0.6 (≈ 1.46 µM) |  |
| CCCOC(=O)c1ccc2no[n+]([O-])c2c1 [Compound T-074] | 0.87 (≈ 3.92 µM) | 4.62 (≈ 20.8 µM) |  |
| CC(=O)c1c(C)[n+]([O-])c2ccc(C(=O)OC(C)C)cc2[n+]1[O-] [Compound T-084] | 0.8 (≈ 2.63 µM) | 0.6 (≈ 1.97 µM) |  |
| CCCOC(=O)c1ccc2c(c1)[n+]([O-])c(C(=O)OCC)c(C)[n+]2[O-] [Compound T-090] | 0.8 (≈ 2.39 µM) |  |  |
| CCCOC(=O)c1ccc2c(c1)[n+]([O-])c(C(=O)C(C)(C)C)c(C)[n+]2[O-] [Compound T-091] | > 100 |  | MABA percentage in parentheses after the MIC bound [1]: 33% |
| Cc1c(C(=O)Nc2ccccc2)[n+]([O-])c2cc(C(=O)OC(C)C)ccc2[n+]1[O-] [Compound T-097] | > 20 | > 20 | MABA percentage in parentheses after the MIC bound [1]: 6%; LORA percentage in parentheses after the MIC bound [3]: 33% |
| Cc1c(C(=O)c2ccccc2)[n+]([O-])c2cc(C(=O)OC(C)C)ccc2[n+]1[O-] [Compound T-098] | 4.59 (≈ 12.5 µM) | 2.87 (≈ 7.83 µM) |  |
| CC(C)OC(=O)c1ccc2c(c1)[n+]([O-])c(C(=O)C(C)(C)C)c(C(C)(C)C)[n+]2[O-] [Compound T-107] | 2.1 (≈ 5.41 µM) |  |  |
| Cc1c(C(N)=O)[n+]([O-])c2cc(C(=O)OC(C)C)ccc2[n+]1[O-] [Compound T-108] | 22.5 (≈ 73.7 µM) |  | inhibitory effect on M. tuberculosis gyrase supercoiling [2]: none of the compounds showed an inhibitory effect |
| CCCOC(=O)c1ccc2c(c1)[n+]([O-])c(C(=O)C(C)C)c(C(F)(F)F)[n+]2[O-] [Compound T-111] | 1.5 (≈ 3.88 µM) |  |  |
| CCCOC(=O)c1ccc2c(c1)[n+]([O-])c(C(=O)OCC)c(C(=O)C(=O)OCC)[n+]2[O-] [Compound T-112] | 1.4 (≈ 3.33 µM) |  |  |
| CCCOC(=O)c1ccc2c(c1)[n+]([O-])c(C(C)=O)c(C(F)(F)F)[n+]2[O-] [Compound T-113] | 3 (≈ 8.37 µM) |  |  |
| CCCOC(=O)c1ccc2c(c1)[n+]([O-])c(C(=O)c1ccco1)c(C(F)(F)F)[n+]2[O-] [Compound T-114] | 2.9 (≈ 7.07 µM) |  | inhibitory effect on M. tuberculosis gyrase supercoiling [2]: none of the compounds showed an inhibitory effect |
| CCCOC(=O)c1ccc2c(c1)[n+]([O-])c(C(=O)c1ccccc1)c(C(F)(F)F)[n+]2[O-] [Compound T-115] | 1.5 (≈ 3.57 µM) |  |  |
| CCCOC(=O)c1ccc2c(c1)[n+]([O-])c(C(=O)OCC)c(C(F)(F)F)[n+]2[O-] [Compound T-124] | 3 (≈ 7.73 µM) |  |  |
| CCCOC(=O)c1ccc2c(c1)[n+]([O-])c(C(=O)Nc1ccccc1)c(C)[n+]2[O-] [Compound T-125] | 12.3 (≈ 32.3 µM) |  | inhibitory effect on M. tuberculosis gyrase supercoiling [2]: none of the compounds showed an inhibitory effect |
| CCCOC(=O)c1ccc2c(c1)[n+]([O-])c(C(C)=O)c(C)[n+]2[O-] [Compound T-126] | 3 (≈ 9.86 µM) |  |  |
| CCCOC(=O)c1ccc2c(c1)[n+]([O-])c(C(N)=O)c(C)[n+]2[O-] [Compound T-130] | 2.9 (≈ 9.5 µM) |  |  |
| CCCOC(=O)c1ccc2c(c1)[n+]([O-])c(C(=O)c1ccccc1)c(C)[n+]2[O-] [Compound T-132] | 2.3 (≈ 6.28 µM) |  |  |
| NNC(=O)c1ccncc1 [INH, isoniazid, reference compound] | 0.12 (≈ 0.875 µM) | > 128 |  |
| CO[C@H]1/C=C/O[C@@]2(C)Oc3c(C)c(O)c4c(O)c(c(/C=N/N5CCN(C)CC5)c(O)c4c3C2=O)NC(=O)/C(C)=C\C=C\[C@H](C)[C@H](O)[C@@H](C)[C@@H](O)[C@@H](C)[C@H](OC(C)=O)[C@@H]1C [RMP, rifampicin, reference compound] | 0.03 (≈ 0.0365 µM) | 0.89 (≈ 1.08 µM) | MIC [4]: < 0.06 µg/mL |
